# Tested on: T1, Rab3a-a-Syn fusion construct
# T1 construct: single-chain fusion: 6-His-tag, Rab3a 15-186 (C137A, wild-type Q81), GSGS linker, alpha-synuclein 101-140 (not phosphorylated); pET15b, E. coli; with Alpha-synuclein
# Assay: malachite green phosphate release, Michaelis-Menten fit
# Assay type: biochemical
# Settings: pH 7.5, 20 mM Hepes, 2 mM MgCl2, 1 mM DTT, 37 °C; a-Syn C-terminal tail covalently fused; no free a-Syn, no SUV
# Text: malachite green phosphate release, Michaelis-Menten fit on Rab3a-a-Syn fusion construct
smiles,measurement,value
Nc1nc2c(ncn2[C@@H]2O[C@H](COP(=O)(O)OP(=O)(O)OP(=O)(O)O)[C@@H](O)[C@H]2O)c(=O)[nH]1 [GTP],Km,174 ± 46 µM

# — paper PMC9396396, “Molecular and functional interactions of alpha-synuclein with Rab3a” (The Journal of Biological Chemistry, 2022)
